Where two headings read alike, the source gives them in different places.
Assays:
[1] = tested on: Hep3B (hepatocellular carcinoma); assay: Cell viability analysis, hepatic cancer Hep3B; assay type: cell-based, human; conditions: Hep3B
[2] = tested on: LoVo (Colorectal Adenocarcinoma); assay: Cell viability analysis, colon cancer LoVo; assay type: cell-based, human; conditions: LoVo; for viability at 10 µM: Homo sapiens
[3] = tested on: MCF7 (Mammary Gland, Adenocarcinoma); assay: Cell viability analysis, breast cancer MCF7; assay type: cell-based, human; conditions: for viability at 10 µM: Homo sapiens
[4] = tested on: HCT116 (p53+) (Colorectal Carcinoma)
[5] = tested on: A549 (Lung Adenocarcinoma); assay: Cell viability analysis, lung cancer A549; assay type: cell-based, human; conditions: A549; for viability at 10 µM: Homo sapiens
BxPC-3 = assay: Cell viability analysis, pancreatic cancer BxPC-3; assay type: cell-based, human
[6] = tested on: 786-O (Renal adenocarcinoma); assay: Cell viability analysis, renal cancer 786-O; assay type: cell-based, human
[7] = tested on: SAS (Tongue squamous cell carcinoma); assay: Cell viability analysis, tongue cancer SAS; assay type: cell-based, human
[8] = tested on: A375 (Amelanotic Melanoma); assay: Cell viability analysis, skin cancer A375; assay type: cell-based, human; conditions: for viability at 10 µM: Homo sapiens
[9] = tested on: HeLa (Cervix Adenocarcinoma); assay: Cell viability analysis, cervical cancer HeLa; assay type: cell-based, human; conditions: HeLa; for viability at 10 µM: Homo sapiens
[10] = tested on: PC3 (p53−) (Prostate Adenocarcinoma); assay: Cell viability analysis, prostate cancer PC3; assay type: cell-based, human; conditions: for viability at 10 µM: Homo sapiens
[11] = tested on: HI650 (Lung Adenocarcinoma); assay: Cell viability analysis, lung cancer HI650; assay type: cell-based, human; conditions: for viability at 10 µM: Homo sapiens
TOV-21G = assay: Cell viability analysis, ovarian cancer TOV-21G; assay type: cell-based, human
[12] = tested on: HL-60 (Acute Promyelocytic Leukemia); assay: Cell viability analysis, leukemia HL-60; assay type: cell-based, human; conditions: Homo sapiens, HL-60; drug 10 μM, 72 hours, WST-1, OD450 nm; read-out: cell viability (survival rate), HL-60
[13] = tested on: AGS (Gastric Adenocarcinoma); assay: Cell viability analysis, gastric cancer AGS; assay type: cell-based, human; conditions: for viability at 10 µM: Homo sapiens
AsPC-1 = assay: Cell viability analysis, pancreatic cancer AsPC-1; assay type: cell-based, human
U-2OS = assay: Cell viability analysis, osteosarcoma U-2OS; assay type: cell-based, human; conditions: U2OS
T24 = assay: Cell viability analysis, bladder cancer T24; assay type: cell-based, human
[14] = tested on: MKN-45 (Gastric Adenocarcinoma); assay: Cell viability analysis, gastric cancer MKN-45; assay type: cell-based, human; conditions: MKN-45; for viability at 10 µM: Homo sapiens
[15] = tested on: C-33A (Cervical carcinoma); assay: Cell viability analysis, cervical cancer C-33A; assay type: cell-based, human
[16] = tested on: HepG2 (Hepatocellular Carcinoma); assay: Cell viability analysis, hepatic cancer HepG2; assay type: cell-based, human; conditions: HepG2; for viability at 10 µM: Homo sapiens
[17] = tested on: TSGH-8301 (Urinary Bladder Carcinoma); assay: Cell viability analysis, bladder cancer TSGH-8301; assay type: cell-based, human; conditions: for viability at 10 µM: Homo sapiens
[18] = tested on: BCC (basal cell carcinoma); assay: Cell viability analysis, skin cancer BCC; assay type: cell-based, human
[19] = tested on: MDA-MB-231 (Mammary Gland, Adenocarcinoma); assay: Cell viability analysis, breast cancer MDA-MB-231; assay type: cell-based, human
NIH: OVCAR-3 = assay: Cell viability analysis, ovarian cancer NIH: OVCAR-3; assay type: cell-based, human

Compound `CCC[C@H](NC(=O)[C@@H]1[C@H]2CCC[C@H]2CN1C(=O)[C@@H](NC(=O)[C@@H](NC(=O)c1cnccn1)C1CCCCC1)C(C)(C)C)C(=O)C(=O)NC1CC1` [Telaprevir (VX-950), Telaprevir] has a viability at 10 µM ([1]; Homo sapiens, 72 h, read-out: The results of antibiotic drug inhibiting cancer cell lines (cell viability analysis), Hep3B) of 121%, a viability at 10 µM ([2]; 72 h, repeated experiment, read-out: The results of antibiotic drug inhibiting cancer cell lines (cell viability analysis), LoVo) of 87% and a viability at 10 µM ([2]; drug 10 μM, 72 hours, WST-1, OD450 nm, read-out: cell viability (survival rate), LoVo) of 73.7%. For the same compound, the viability at 10 µM ([3]; MCF7, 72 h, MCF-7, repeated experiment, read-out: The results of antibiotic drug inhibiting cancer cell lines (cell viability analysis), MCF-7) was 76.4%, the viability at 10 µM ([3]; MCF7, drug 10 μM, 72 hours, WST-1, OD450 nm, read-out: cell viability (survival rate), MCF7) was 61.6% and the viability [4] was 93.6%. It also gave a viability at 10 µM ([5]; 72 h, repeated experiment, read-out: The results of antibiotic drug inhibiting cancer cell lines (cell viability analysis), A549) of 80.4%, a viability at 10 µM ([5]; drug 10 μM, 72 hours, WST-1, OD450 nm, read-out: cell viability (survival rate), A549) of 49.3% and a viability at 10 µM (BxPC-3; Homo sapiens, BXPC-3, 72 h, read-out: The results of antibiotic drug inhibiting cancer cell lines (cell viability analysis), BxPC-3) of 63.9%. The viability at 10 µM ([6]; Homo sapiens, 786-0, 72 h, read-out: The results of antibiotic drug inhibiting cancer cell lines (cell viability analysis), 786-O) was 94.8%, the viability at 10 µM ([7]; Homo sapiens, 72 h, read-out: The results of antibiotic drug inhibiting cancer cell lines (cell viability analysis), SAS) was 67.6% and the viability at 10 µM ([8]; A-375, 72 h, A375, repeated experiment, read-out: The results of antibiotic drug inhibiting cancer cell lines (cell viability analysis), A375) was 105%. The viability at 10 µM ([8]; A-375, drug 10 μM, 72 hours, WST-1, OD450 nm, read-out: cell viability (survival rate), A375) was 131%, the viability at 10 µM ([9]; 72 h, repeated experiment, read-out: The results of antibiotic drug inhibiting cancer cell lines (cell viability analysis), HeLa) was 92.6% and the viability at 10 µM ([9]; drug 10 μM, 72 hours, WST-1, OD450 nm, read-out: cell viability (survival rate), HeLa) was 84%. It also gave a viability at 10 µM ([10]; 72 h, PC-3, repeated experiment, read-out: The results of antibiotic drug inhibiting cancer cell lines (cell viability analysis), PC-3) of 89.2%, a viability at 10 µM ([10]; drug 10 μM, 72 hours, WST-1, OD450 nm, read-out: cell viability (survival rate), PC3) of 50% and a viability at 10 µM ([11]; NCI-H1650, 72 h, H1650, repeated experiment, read-out: The results of antibiotic drug inhibiting cancer cell lines (cell viability analysis), H1650) of 107%. It also gave a viability at 10 µM ([11]; NCI-H1650, drug 10 μM, 72 hours, WST-1, OD450 nm, read-out: cell viability (survival rate), H1650) of 51.6%, a viability at 10 µM (TOV-21G; Homo sapiens, TOV21G, 72 h, read-out: The results of antibiotic drug inhibiting cancer cell lines (cell viability analysis), TOV-21G) of 81.6% and a viability at 10 µM [12] of 111%. For the same compound, the viability at 10 µM ([13]; 72 h, AGS, repeated experiment, read-out: The results of antibiotic drug inhibiting cancer cell lines (cell viability analysis), AGS) was 111%, the viability at 10 µM ([13]; drug 10 μM, 72 hours, WST-1, OD450 nm, read-out: cell viability (survival rate), AGS) was 49.2% and the viability at 10 µM (AsPC-1; Homo sapiens, ASPC1, 72 h, read-out: The results of antibiotic drug inhibiting cancer cell lines (cell viability analysis), AsPC-1) was 69.3%. For the same compound, the viability at 10 µM (U-2OS; Homo sapiens, 72 h, read-out: The results of antibiotic drug inhibiting cancer cell lines (cell viability analysis), U2OS) was 63.4%, the viability at 10 µM (T24; Homo sapiens, T-24, 72 h, read-out: The results of antibiotic drug inhibiting cancer cell lines (cell viability analysis), T24) was 115% and the viability at 10 µM ([14]; 72 h, repeated experiment, read-out: The results of antibiotic drug inhibiting cancer cell lines (cell viability analysis), MKN-45) was 107%. For the same compound, the viability at 10 µM ([14]; drug 10 μM, 72 hours, WST-1, OD450 nm, read-out: cell viability (survival rate), MKN-45) was 48%, the viability at 10 µM ([15]; Homo sapiens, C-33-A, 72 h, read-out: The results of antibiotic drug inhibiting cancer cell lines (cell viability analysis), C-33A) was 102% and the viability at 10 µM ([16]; 72 h, repeated experiment, read-out: The results of antibiotic drug inhibiting cancer cell lines (cell viability analysis), HepG2) was 114%. The viability at 10 µM ([16]; drug 10 μM, 72 hours, WST-1, OD450 nm, read-out: cell viability (survival rate), HepG2) was 100%, the viability at 10 µM ([17]; 72 h, TSGH-8301, repeated experiment, read-out: The results of antibiotic drug inhibiting cancer cell lines (cell viability analysis), TSGH-8301) was 103% and the viability at 10 µM ([17]; drug 10 μM, 72 hours, WST-1, OD450 nm, read-out: cell viability (survival rate), TSGH) was 50.2%. It also gave a viability at 10 µM ([18]; Homo sapiens, 72 h, read-out: The results of antibiotic drug inhibiting cancer cell lines (cell viability analysis), BCC) of 92.5%, a viability at 10 µM ([19]; Homo sapiens, MDA-MB-231, 72 h, read-out: The results of antibiotic drug inhibiting cancer cell lines (cell viability analysis), MDA-MB231) of 95.6% and a viability at 10 µM (NIH: OVCAR-3; Homo sapiens, OVCAR-3, 72 h, read-out: The results of antibiotic drug inhibiting cancer cell lines (cell viability analysis), NIH-OVCAR-3) of 95.6%.

`CCCSc1ccc2[nH]c(NC(=O)OC)nc2c1` [Albendazole (Albenza)] was tested, and the “The results of antibiotic drug inhibiting cancer cell lines (cell viability analysis), Hep3B” value ([1]; repeated experiment) was 61.38, the “The results of antibiotic drug inhibiting cancer cell lines (cell viability analysis), LoVo” value ([2]; repeated experiment) was 50.79 and the “The results of antibiotic drug inhibiting cancer cell lines (cell viability analysis), MCF-7” value ([3]; MCF-7, repeated experiment) was 69.83. For the same compound, the viability [4] was 20.9%, the “The results of antibiotic drug inhibiting cancer cell lines (cell viability analysis), A549” value ([5]; repeated experiment) was 24.2 and the “The results of antibiotic drug inhibiting cancer cell lines (cell viability analysis), BxPC-3” value (BxPC-3; BxPC-3, repeated experiment) was 36.62. The “The results of antibiotic drug inhibiting cancer cell lines (cell viability analysis), 786-O” value ([6]; 786-O, repeated experiment) was 21.55, the “The results of antibiotic drug inhibiting cancer cell lines (cell viability analysis), SAS” value ([7]; SAS, repeated experiment) was 36.08 and the “The results of antibiotic drug inhibiting cancer cell lines (cell viability analysis), A375” value ([8]; A375, repeated experiment) was 36.21. For the same compound, the “The results of antibiotic drug inhibiting cancer cell lines (cell viability analysis), HeLa” value ([9]; repeated experiment) was 29.9, the “The results of antibiotic drug inhibiting cancer cell lines (cell viability analysis), PC-3” value ([10]; PC-3, repeated experiment) was 37.99 and the “The results of antibiotic drug inhibiting cancer cell lines (cell viability analysis), H1650” value ([11]; H1650, repeated experiment) was 41.75. The “The results of antibiotic drug inhibiting cancer cell lines (cell viability analysis), TOV-21G” value (TOV-21G; TOV-21G, repeated experiment) was 29.79, the “The results of antibiotic drug inhibiting cancer cell lines (cell viability analysis), AGS” value ([13]; AGS, repeated experiment) was 29.46 and the “The results of antibiotic drug inhibiting cancer cell lines (cell viability analysis), AsPC-1” value (AsPC-1; AsPC-1, repeated experiment) was 35.28. The “The results of antibiotic drug inhibiting cancer cell lines (cell viability analysis), U2OS” value (U-2OS; repeated experiment) was 50.07, the “The results of antibiotic drug inhibiting cancer cell lines (cell viability analysis), T24” value (T24; T24, repeated experiment) was 37.98 and the “The results of antibiotic drug inhibiting cancer cell lines (cell viability analysis), MKN-45” value ([14]; repeated experiment) was 62.34. For the same compound, the “The results of antibiotic drug inhibiting cancer cell lines (cell viability analysis), C-33A” value ([15]; C-33A, repeated experiment) was 42.62, the “The results of antibiotic drug inhibiting cancer cell lines (cell viability analysis), HepG2” value ([16]; repeated experiment) was 62.7 and the “The results of antibiotic drug inhibiting cancer cell lines (cell viability analysis), TSGH-8301” value ([17]; TSGH-8301, repeated experiment) was 46.61. The “The results of antibiotic drug inhibiting cancer cell lines (cell viability analysis), BCC” value ([18]; BCC, repeated experiment) was 31.25, the “The results of antibiotic drug inhibiting cancer cell lines (cell viability analysis), MDA-MB231” value ([19]; MDA-MB231, repeated experiment) was 44.52 and the “The results of antibiotic drug inhibiting cancer cell lines (cell viability analysis), NIH-OVCAR-3” value (NIH: OVCAR-3; NIH-OVCAR-3, repeated experiment) was 52.49.
